Target: human FXR (NR1H4) (Homo sapiens (Human), UniProt Q96RI1)
Assay: Human FXR (NR1H4) Assay (luciferase reporter, Indigo Bioscience kit); as to Efficacy (%): efficacy normalized to CDCA set as 100%
Assay type: cell-based
Conditions: for EC50: FXR agonistic potency range, CHO reporter cells expressing human NR1H4, 22 hours incubation; for Emax: read-out: Efficacy (%)
Excerpt: Assays Human FXR (NR1H4) Assay
Determination of a ligand mediated Gal4 promoter driven transactivation to quantify ligand binding mediated activation of FXR. FXR Reporter Assay kit purchased from Indigo Bioscience (Catalogue number: IB00601) to determine the potency and efficacy of compound developed by Enanta that can induce FXR activation. The principle application of this reporter assay system is to quantify functional activity of human FXR. The assay utilizes non-human mammalian cells, CHO (Chinese hamster ovary) cells engineered to express human NR1H4 protein (referred to as FXR). Reporter cells also incorporate the cDNA encoding beetle luciferase which catalyzes the substrates and yields photon emission. Luminescence intensity of the reaction is quantified using a plate-reading luminometer, Envision. Reporter Cells include the luciferase reporter gene functionally linked to an FXR responsive promoter. Thus, quantifying changes in luciferase expression in the treated reporter cells provides a sensitive surrogate measure of the changes in FXR activity. […] The assay is according to the manufacturer's instructions. In brief, the assay was performed in white, 96 well plates using final volume of 100 ul containing cells with different doses of compounds. Retrieve Reporter Cells from −80° C. storage. Perform a rapid thaw of the frozen cells by transferring a 10 ml volume of 37° C. cell recovery medium into the tube of frozen cells. Recap the tube of Reporter Cells and immediately place it in a 37° C. water bath for 5-10 minutes. Retrieve the tube of Reporter Cell Suspension from the water bath. Sanitize the outside surface of the tube with a 70% alcohol swab, and then transfer it into the cell culture hood. Dispense 90 μl of cell suspension into each well of the 96-well Assay Plate. Transfer the plate into 37° C. incubator, allowing the cells adherent to the bottom of the well. Dilute compounds in Dilution Plate (DP), and administrate to cells at Assay Plate (AP). DMSO content of the samples was kept at 0.2%. Cells were incubated for additional 22 hours before luciferase activities were measured. Thirty minutes before intending to quantify FXR activity, remove Detection Substrate and Detection Buffer from the refrigerator and place them in a low-light area so that they may equilibrate to room temperature. Remove the plate's lid and discard all media contents by ejecting it into an appropriate waste container. Gently tap the inverted plate onto a clean absorbent paper towel to remove residual droplets. Cells will remain tightly adhered to well bottoms. Add 100 μl of luciferase detection reagent to each well of the assay plate. Allow the assay plate to rest at room temperature for at least 5 minutes following the addition of LDR. Set the instrument (Envision) to perform a single 5 second “plate shake” prior to reading the first assay well. Read time may be 0.5 second (500 mSec) per well.

Sequence of human FXR (NR1H4) (Q96RI1 whole entry): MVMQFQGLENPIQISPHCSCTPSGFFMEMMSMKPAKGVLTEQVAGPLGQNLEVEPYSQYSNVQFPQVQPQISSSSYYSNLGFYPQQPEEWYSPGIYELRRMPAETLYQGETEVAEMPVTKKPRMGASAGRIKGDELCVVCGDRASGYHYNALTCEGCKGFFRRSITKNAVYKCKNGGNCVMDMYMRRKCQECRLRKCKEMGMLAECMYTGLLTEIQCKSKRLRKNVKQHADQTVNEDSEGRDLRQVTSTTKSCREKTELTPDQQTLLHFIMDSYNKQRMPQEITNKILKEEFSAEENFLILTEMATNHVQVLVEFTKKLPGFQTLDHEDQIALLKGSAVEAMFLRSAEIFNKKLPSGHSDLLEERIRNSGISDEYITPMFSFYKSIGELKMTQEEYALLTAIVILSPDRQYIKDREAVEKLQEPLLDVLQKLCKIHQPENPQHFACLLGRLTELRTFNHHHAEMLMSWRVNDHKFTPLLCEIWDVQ

Structure (SMILES) | EC50 | Emax
CC[C@H]1[C@@H](O)[C@@H]2[C@H](CC[C@]3(C)[C@@H]([C@H](C)C/C=C/c4ccccc4C(=O)OC)CC[C@@H]23)[C@@]2(C)CC[C@@H](O)C[C@@H]12 [Example 1] | 1000 to 10000 nM | 217%
CC[C@H]1[C@@H](O)[C@@H]2[C@H](CC[C@]3(C)[C@@H]([C@H](C)C/C=C/c4ccccc4C(=O)O)CC[C@@H]23)[C@@]2(C)CC[C@@H](O)C[C@@H]12 [Example 2] | < 100 nM | 313%
CC[C@H]1[C@@H](O)[C@@H]2[C@H](CC[C@]3(C)[C@@H]([C@H](C)CCCc4ccccc4C(=O)O)CC[C@@H]23)[C@@]2(C)CC[C@@H](O)C[C@@H]12 [Example 3] | 100 to 1000 nM | 352%
CC[C@H]1[C@@H](O)[C@@H]2[C@H](CC[C@]3(C)[C@@H]([C@H](C)CC=Cc4cc(F)c(O)c(F)c4)CC[C@@H]23)[C@@]2(C)CC[C@@H](O)C[C@@H]12 [Example 4] | 100 to 1000 nM | 298%
CC[C@H]1[C@@H](O)[C@@H]2[C@H](CC[C@]3(C)[C@@H]([C@H](C)CCCc4cc(F)c(O)c(F)c4)CC[C@@H]23)[C@@]2(C)CC[C@@H](O)C[C@@H]12 [Example 5] | 1000 to 10000 nM | 271%
CC[C@H]1[C@@H](O)[C@@H]2[C@H](CC[C@]3(C)[C@@H]([C@H](C)Cc4nc5c(C(=O)OC)cccc5o4)CC[C@@H]23)[C@@]2(C)CC[C@@H](O)C[C@@H]12 [Example 6] | 1000 to 10000 nM | 131%
CC[C@H]1[C@@H](O)[C@@H]2[C@H](CC[C@]3(C)[C@@H]([C@H](C)Cc4nc5c(C(=O)O)cccc5o4)CC[C@@H]23)[C@@]2(C)CC[C@@H](O)C[C@@H]12 [Example 7] | 100 to 1000 nM | 195%
CC[C@H]1[C@@H](O)[C@@H]2[C@H](CC[C@]3(C)[C@@H]([C@H](C)CCCn4nnc(CC(=O)O)n4)CC[C@@H]23)[C@@]2(C)CC[C@@H](O)C[C@@H]12 [Example 8] | 1000 to 10000 nM | 29%
CC[C@H]1[C@@H](O)[C@@H]2[C@H](CC[C@]3(C)[C@@H]([C@H](C)CCCn4nnnc4CC(=O)O)CC[C@@H]23)[C@@]2(C)CC[C@@H](O)C[C@@H]12 [Example 9] | 1000 to 10000 nM | 172%
CC[C@H]1[C@@H](O)[C@@H]2[C@H](CC[C@]3(C)[C@@H]([C@H](C)CC4CC4c4ccccc4C(=O)O)CC[C@@H]23)[C@@]2(C)CC[C@@H](O)C[C@@H]12 (some centres unmarked) [Example 10] | 100 to 1000 nM | 252%
CC[C@H]1[C@@H](O)[C@@H]2[C@H](CC[C@]3(C)[C@@H]([C@H](C)CCOc4ccccc4C(=O)O)CC[C@@H]23)[C@@]2(C)CC[C@@H](O)C[C@@H]12 [Example 11] | – | 388%
CC[C@H]1[C@@H](O)[C@@H]2[C@H](CC[C@]3(C)[C@@H]([C@H](C)C/C=C/c4ccc(C(=O)OC)c(O)c4)CC[C@@H]23)[C@@]2(C)CC[C@@H](O)C[C@@H]12 [Example 12] | 1000 to 10000 nM | 134%
CC[C@H]1[C@@H](O)[C@@H]2[C@H](CC[C@]3(C)[C@@H]([C@H](C)C/C=C/c4ccc(C(=O)O)c(O)c4)CC[C@@H]23)[C@@]2(C)CC[C@@H](O)C[C@@H]12 [Example 13] | 100 to 1000 nM | 166%
CC[C@H]1[C@@H](O)[C@@H]2[C@H](CC[C@]3(C)[C@@H]([C@H](C)CCCc4ccc(C(=O)O)c(O)c4)CC[C@@H]23)[C@@]2(C)CC[C@@H](O)C[C@@H]12 [Example 14] | 1000 to 10000 nM | 232%
CC[C@H]1[C@@H](O)[C@@H]2[C@H](CC[C@]3(C)[C@@H]([C@H](C)C/C=C/c4ccc(C(C)C(=O)OC)cc4)CC[C@@H]23)[C@@]2(C)CC[C@@H](O)C[C@@H]12 (some centres unmarked) [Example 15] | 1000 to 10000 nM | 40%
CC[C@H]1[C@@H](O)[C@@H]2[C@H](CC[C@]3(C)[C@@H]([C@H](C)C/C=C/c4ccc(C(C)C(=O)O)cc4)CC[C@@H]23)[C@@]2(C)CC[C@@H](O)C[C@@H]12 (some centres unmarked) [Example 16] | 1000 to 10000 nM | 248%
CC[C@H]1[C@@H](O)[C@@H]2[C@H](CC[C@]3(C)[C@@H]([C@H](C)CCCc4ccc(C(C)C(=O)O)cc4)CC[C@@H]23)[C@@]2(C)CC[C@@H](O)C[C@@H]12 (some centres unmarked) [Example 17] | 1000 to 10000 nM | 261%
CC[C@H]1[C@@H](O)[C@@H]2[C@H](CC[C@]3(C)[C@@H]([C@H](C)C/C=C/c4ccc(C(=O)OC)cc4)CC[C@@H]23)[C@@]2(C)CC[C@@H](O)C[C@@H]12 [Example 18] | 1000 to 10000 nM | 113%
CC[C@H]1[C@@H](O)[C@@H]2[C@H](CC[C@]3(C)[C@@H]([C@H](C)C/C=C/c4ccc(C(=O)O)cc4)CC[C@@H]23)[C@@]2(C)CC[C@@H](O)C[C@@H]12 [Example 19] | 100 to 1000 nM | 244%
CC[C@H]1[C@@H](O)[C@@H]2[C@H](CC[C@]3(C)[C@@H]([C@H](C)CCCc4ccc(C(=O)O)cc4)CC[C@@H]23)[C@@]2(C)CC[C@@H](O)C[C@@H]12 [Example 20] | 1000 to 10000 nM | 266%
CC[C@H]1[C@@H](O)[C@@H]2[C@H](CC[C@]3(C)[C@@H]([C@H](C)C/C=C/c4cccc(C(=O)OC)c4)CC[C@@H]23)[C@@]2(C)CC[C@@H](O)C[C@@H]12 [Example 21] | 1000 to 10000 nM | 92%
CC[C@H]1[C@@H](O)[C@@H]2[C@H](CC[C@]3(C)[C@@H]([C@H](C)C/C=C/c4cccc(C(=O)O)c4)CC[C@@H]23)[C@@]2(C)CC[C@@H](O)C[C@@H]12 [Example 22] | 1000 to 10000 nM | 195%
CC[C@H]1[C@@H](O)[C@@H]2[C@H](CC[C@]3(C)[C@@H]([C@H](C)CCCc4cccc(C(=O)O)c4)CC[C@@H]23)[C@@]2(C)CC[C@@H](O)C[C@@H]12 [Example 23] | 1000 to 10000 nM | 292%
CC[C@H]1[C@@H](O)[C@@H]2[C@H](CC[C@]3(C)[C@@H]([C@H](C)C/C=C/c4ccc(-c5nnn[nH]5)cc4)CC[C@@H]23)[C@@]2(C)CC[C@@H](O)C[C@@H]12 [Example 24] | 1000 to 10000 nM | 234%
CC[C@H]1[C@@H](O)[C@@H]2[C@H](CC[C@]3(C)[C@@H]([C@H](C)C/C=C/c4ccc(F)cc4C(=O)O)CC[C@@H]23)[C@@]2(C)CC[C@@H](O)C[C@@H]12 [Example 25] | – | 376%
CC[C@H]1[C@@H](O)[C@@H]2[C@H](CC[C@]3(C)[C@@H]([C@H](C)CCCc4ccc(F)cc4C(=O)O)CC[C@@H]23)[C@@]2(C)CC[C@@H](O)C[C@@H]12 [Example 26] | 100 to 1000 nM | 256%
CC[C@H]1[C@@H](O)[C@@H]2[C@H](CC[C@]3(C)[C@@H]([C@H](C)C/C=C/c4cnccc4C(=O)OC)CC[C@@H]23)[C@@]2(C)CC[C@@H](O)C[C@@H]12 [Example 27] | 1000 to 10000 nM | 296%
CC[C@H]1[C@@H](O)[C@@H]2[C@H](CC[C@]3(C)[C@@H]([C@H](C)C/C=C/c4cnccc4C(=O)O)CC[C@@H]23)[C@@]2(C)CC[C@@H](O)C[C@@H]12 [Example 28] | 100 to 1000 nM | 300%
CC[C@H]1[C@@H](O)[C@@H]2[C@H](CC[C@]3(C)[C@@H]([C@H](C)C/C=C/c4ccccc4C#N)CC[C@@H]23)[C@@]2(C)CC[C@@H](O)C[C@@H]12 [Example 29] | 1000 to 10000 nM | 210%
